Measurements as given in US20120301895A1, “METHODS OF MODULATING BINDING OF SON OF SEVENLESS TO PHOSPHATIDIC ACID AND IDENTIFYING COMPOUNDS THAT MODULATE SUCH BINDING” (THE RESEARCH FOUNDATION OF STATE UNIVERSITY OF NEW YORK, priority 2007, published 2012).
Residue numbers refer to the chain shown, from its start.

How the values were obtained:
[1] = system: Ras; assay: Ras activation by Sos-ΔC after PA treatment, RBD pull-down in COS-1 cells; assay type: cell-based; details: membrane-permeable PA 100 μM, serum-starved COS-1 cells
Description: In FIG. 6A, COS-1 cells were transfected with GFP-tagged constructs of Sos-PH or Sos-PH-HR/EE. The cells were serum-starved and then treated with PA (100 μM) for 20 min. In FIG. 6B, COS-1 cells were transfected with HA-tagged Sos-ΔC or Sos-ΔC-HR/EE. The cells were serum-starved and then stimulated with serum (20%) for 10 min. For FIGS. 6A-B, the fluorescence staining patterns were analyzed through the acquisition of serial optical Z sections. The images shown represent single 0.25 μm optical sections acquired at the mid plane of the cells with the same exposure time. Membrane localization is reflected by the relative increase in fluorescence intensity at the cell periphery (arrowheads). […] The number of cells displaying plasma membrane localization of the protein is expressed as percentage of the total number of cells scored and normalized to the maximal value obtained for each experiment. […] Results are the mean+/−s.d. of three independent experiments with at least 100 cells scored in each experiment. […] Ras activation was measured by the RBD pull-down assay as described in the Examples. […]
The levels of Ras-GTP were determined by the GST-RBD pull down assay as described previously (Boykevisch et al., “Regulation of Ras Signaling Dynamics by Sos-mediated Positive Feedback,” Curr. Biol. 16:2173-2179 (2006), which is hereby incorporated by reference in its entirety). […]

[2] = biological target: T1, Sos-PH (Homo sapiens, UniProt Q07889); assay: PA-induced plasma membrane translocation of GFP-tagged Sos-PH in COS-1 cells (fluorescence microscopy); assay type: cell-based, African green monkey; details: membrane-permeable PA 100 μM, 20 min, serum-starved COS-1 cells, wild-type Sos-PH
T1 construct: expressed in transfected cells; host or cells: COS-1
T1 sequence (Q07889 422-551): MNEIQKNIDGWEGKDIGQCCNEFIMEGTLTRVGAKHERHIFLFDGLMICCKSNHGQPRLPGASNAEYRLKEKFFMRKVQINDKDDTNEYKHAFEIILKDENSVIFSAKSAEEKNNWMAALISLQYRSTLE
Description: (§1) In FIG. 6A, COS-1 cells were transfected with GFP-tagged constructs of Sos-PH or Sos-PH-HR/EE. The cells were serum-starved and then treated with PA (100 μM) for 20 min. In FIG. 6B, COS-1 cells were transfected with HA-tagged Sos-ΔC or Sos-ΔC-HR/EE. The cells were serum-starved and then stimulated with serum (20%) for 10 min. For FIGS. 6A-B, the fluorescence staining patterns were analyzed through the acquisition of serial optical Z sections. The images shown represent single 0.25 μm optical sections acquired at the mid plane of the cells with the same exposure time. Membrane localization is reflected by the relative increase in fluorescence intensity at the cell periphery (arrowheads). The boxed areas are enlarged on the top and bottom of the corresponding images. The number of cells displaying plasma membrane localization of the protein is expressed as percentage of the total number of cells scored and normalized to the maximal value obtained for each experiment. […] Results are the mean+/−s.d. of three independent experiments with at least 100 cells scored in each experiment. Scale bars represent 20 μm in all panels. In FIGS. 6C-D, COS-1 cells were co-transfected with HA-tagged Ras and the indicated HA-tagged Sos-ΔC constructs. […] Ras activation was measured by the RBD pull-down assay as described in the Examples. […]

[3] = biological target: T2, Sos-PH (Homo sapiens, UniProt Q07889, H475E/R479E); assay: as above; assay type: cell-based, African green monkey; details: membrane-permeable PA 100 μM, 20 min, serum-starved COS-1 cells
T2 construct: expressed in transfected cells; host or cells: COS-1
T2 sequence (Q07889 422-551 H475E/R479E): T1 sequence (Q07889 422-551) with H54E, R58E
Description: as §1

[4] = system: HIF2α; assay: HIF2α expression in 786-O cells (Western blot); assay type: cell-based, human; details: 0.5% serum, 4 hr, honokiol 20 μM, 1-BtOH 0.8%
Description: In FIG. 15B, 786-O cells were plated and then shifted to media containing 0.5% serum 24 hr later. 18 hr later, the cells were treated with 1-Bt0H (0.8%), honokiol (Hon) (20 μM), and t-BtOH (0.8%) as indicated. Cell lysates were prepared 4 hr later and examined for HIF2α and actin expression by Western lot analysis. The experiment shown is representative of two independent experiments.
Extraction of proteins from cultured cells and Western blot analysis of extracted proteins was performed using the ECL system (Amersham) as described previously (Chen et al., “Alternative Phospholipase D/mTOR Survival Signal in Human Breast Cancer Cells,” Oncogene 24:672-9 (2005), which is hereby incorporated by reference in its entirety).
The effect of honokiol on HIF2α expression was examined in these cells.

Structure (SMILES)	Ras activation by SosΔC [1]	level of active Ras in cells expressing SosΔC-HR/EE [1]	Sos-PH translocation to the plasma membrane [2]	plasma membrane recruitment of Sos-PH-HR/EE [3]	HIF2α expression [4]
CCCCCCCCCCCC(=O)OC[C@H](COP(=O)(O)O)OC(=O)CCCCCCCCCCC [PA, 1,2-Dilauroyl-sn-Glycero-3-Phosphate]	sufficed to induce	did not increase	stimulated	failed to induce	–
CCCCO [1-butanol]	–	–	–	–	suppressed
